From US6506746B2, “Method for treating cognitive dysfunction” (Eli Lilly and Company, priority 1997, dated 2003)

Key:
[1] = system: elderly patients with cognitive dysfunction; experiment: double-blind multicenter clinical trial in elderly patients with cognitive dysfunction; assay type: in vivo, human; conditions: 237 elderly patients (>=65 years), versus placebo; BEHAVE-AD, BPRS and CGI rating scales
Description: Changes in behavioral manifestations were measured using the BEHAVE-AD, BPRS, and CGI rating scales, which are known and available to the skilled artisan.

[2] = detection of radiolabelled compound in saliva; assay type: in vivo
Description: For example, in the treatment of adult humans, dosages of from about 0.25 to 50 mg, preferably from 1 to 30 mg, and most preferably 1 to 20 mg per day may be used. A once a day dosage is normally sufficient, although divided doses may be administered. For treatment of cognitive dysfunction, a dose range of from 1 to 30 mg, preferably 1 to 20 mg per day is suitable.

[3] = system: muscarinic cholinergic receptor; conditions: results of pharmacological studies
5-HT1C receptor = target: T1, 5-HT1C receptor (Homo sapiens, UniProt P28335); experiment: 5-HT1C receptor activity
T1 sequence (P28335 33-458): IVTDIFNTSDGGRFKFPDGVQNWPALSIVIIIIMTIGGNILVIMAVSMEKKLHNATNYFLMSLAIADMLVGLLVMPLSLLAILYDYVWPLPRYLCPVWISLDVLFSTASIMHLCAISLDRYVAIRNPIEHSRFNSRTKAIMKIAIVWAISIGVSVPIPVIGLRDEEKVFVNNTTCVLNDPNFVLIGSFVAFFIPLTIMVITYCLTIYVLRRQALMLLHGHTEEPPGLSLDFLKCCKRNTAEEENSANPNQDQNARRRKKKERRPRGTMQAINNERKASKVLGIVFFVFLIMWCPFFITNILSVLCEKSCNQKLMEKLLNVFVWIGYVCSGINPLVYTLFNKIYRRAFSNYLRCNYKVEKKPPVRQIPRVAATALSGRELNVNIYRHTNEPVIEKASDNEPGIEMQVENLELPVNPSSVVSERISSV

| SMILES | changes in behavioral manifestations [1] | detection in saliva [2] | muscarinic cholinergic receptor activity [3] | activity at the 5-HT1C receptor (5-HT1C receptor) |
| --- | --- | --- | --- | --- |
| Cc1cc2c(s1)Nc1ccccc1N=C2N1CCN(C)CC1 [2-methyl-4-(4-methyl-1-piperazinyl)-10H-thieno[2,3-b][1,5]benzodiazepine] | can be useful for the treatment of behavioral manifestations of cognitive dysfunction | can be detected in the saliva | has muscarinic cholinergic receptor activity |  |
| Cc1cc2c(s1)Nc1ccccc1N=C2N1CCN(C)CC1 [anhydrous Form I compound, 2-methyl-4-(4-methyl-1-piperazinyl)-10H-thieno[2,3-b][1,5]benzodiazepine] |  |  |  | active |
